In patent US20220054543A1, “Enteric Use of Potassium Permanganate in Humans and Animals” (priority 2020, published 2022):

System: common human coronaviruses (229E, NL63, OC43, and HKU1)
Assay: enteric administration to humans, treating common human coronavirus infections
Assay type: in vivo

Measured: effective in treating infections resulting from the common human coronaviruses

Potassium permanganate
effective: adult humans, inhalation by cold-mist inhaler or nebulizer, 3.0 ml of 1:10,000 dilution (0.1 mg/mL solution) per day for three days | adult humans, inhalation by cold-mist inhaler or nebulizer, 3.0 ml of 1:50,000 dilution (0.02 mg/mL solution) per day for three days | adult humans, inhalation by cold-mist inhaler or nebulizer, 3.0 ml of 1:100,000 dilution (0.01 mg/mL solution) per day for three days | humans, intravenous, 10.0 cc per 45.4 kg of 1:10,000 dilution (0.1 mg/mL solution) per day for three days | humans, intravenous, 10.0 cc per 45.4 kg of 1:50,000 dilution (0.02 mg/mL solution) per day for three days | humans, intravenous, 10.0 cc per 45.4 kg of 1:100,000 dilution (0.01 mg/mL solution) per day for three days | humans, oral, 1 mg/kg per day for three days | humans, oral, 1 mg/kg per day on a daily basis (prophylactic) | humans, oral, 5 mg/kg per day for three days | humans, oral, 10 mg/kg per day for three days
